Here are results for 17 compounds from the supplement of paper PMC10627819.

Experiment in all cases: Bliss interaction score (quartile over a dose matrix) (fitness difference); higher = more antagonism (negative = synergy)
For experiment [1], the system named is B. subtilis 168. The method in brief:
(§1)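 OD595 was read at entry into stationary phase and expressed relative to the robust mean of the no-drug wells on the same plate, capped at 1. The resulting ratio is the fitness value. The Bliss score, observed fitness minus product-based expected fitness with single-drug fitness inferred from combinations, is summarised by quartiles over technical, biological and donor/recipient replicates.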

In experiment [2] the test system is S. pneumoniae D39V. The method in brief:
as §1

For experiment [3], the system named is S. aureus DSM 20231. An outline of the steps:
as §1

Experiment [4] concerns S. aureus Newman. The method in brief: as §1
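Also: first quartile when negative (synergy) and third quartile when positive (antagonism).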

As for `CC(=O)Oc1ccccc1C(=O)O` [Acetylsalicylicacid] + C1=CC(=CC(=C1)Cl)NN=C(C#N)C#N [CCCP], the Bliss interaction score in experiment [1] is -0.0436; in experiment [2] it was -0.161; in experiment [3] it was -0.138; in experiment [4] it was -0.0296.

Take `CC(=O)Oc1ccccc1C(=O)O` [Acetylsalicylicacid] + C/C(=C\C(=O)OCCCCCCCCC(=O)O)C[C@@H]1OC[C@H](C[C@@H]2O[C@H]2[C@@H](C)[C@H](C)O)[C@@H](O)[C@H]1O [Pseudomonic acid]: the Bliss interaction score was -0.2 in experiment [1], -0.0974 in experiment [2], -0.0241 in experiment [3] and -0.0211 in experiment [4].

As to `CC(=O)Oc1ccccc1C(=O)O` [Acetylsalicylicacid] + CC1(C)S[C@@H]2[C@H](NC(=O)Cc3ccccc3)C(=O)N2[C@H]1C(=O)O [PenicillinG], the Bliss interaction score is 0.117 in experiment [1], -0.0595 in experiment [2], 0.101 in experiment [3] and 0.0702 in experiment [4].

Regarding `CC(=O)Oc1ccccc1C(=O)O` [Acetylsalicylicacid] + CC1(C)S[C@@H]2[C@H](NC(=O)[C@H](N)c3ccc(O)cc3)C(=O)N2[C@H]1C(=O)O [Amoxicillin], the Bliss interaction score in experiment [1] is 0.192; in experiment [2], 0.0431; in experiment [3], 0.078; in experiment [4] it was -0.0753.

Consider `CC(=O)Oc1ccccc1C(=O)O` [Acetylsalicylicacid] + CC1=C(C(=O)O)N2C(=O)[C@@H](NC(=O)[C@H](N)c3ccccc3)[C@H]2SC1 [Cephalexin], for which the Bliss interaction score in experiment [1] turned out to be 0.108; in experiment [2] it was 0.241; in experiment [3], 0.0849; in experiment [4] it was 0.0494.

With `CC(=O)Oc1ccccc1C(=O)O` [Acetylsalicylicacid] + CC1=C\[C@@H](O)CC(=O)Cc2nc(co2)C(=O)N2CCC=C2C(=O)O[C@H](C(C)C)[C@H](C)/C=C/C(=O)NC\C=C\1 [Virginiamycin M1], the Bliss interaction score in experiment [1] was -0.0602; in experiment [2] it was -0.0556; in experiment [3], -0.0657; in experiment [4], -0.0537.

With `CC(=O)Oc1ccccc1C(=O)O` [Acetylsalicylicacid] + CC(=O)NC[C@H]1CN(c2ccc(N3CCOCC3)c(F)c2)C(=O)O1 [Linezolid], the Bliss interaction score in experiment [1] was 0.0401; in experiment [2], 0.145; in experiment [3] it was -0.0728; in experiment [4], 0.0639.

On to `CC(=O)Oc1ccccc1C(=O)O` [Acetylsalicylicacid] + CC(=O)O[C@H]1C[C@@]2(C)[C@@H](C[C@@H](O)[C@H]3[C@@]4(C)CC[C@@H](O)[C@@H](C)[C@@H]4CC[C@@]32C)/C1=C(\CCC=C(C)C)C(=O)O [Fusidic acid], for which the Bliss interaction score in experiment [1] is -0.0821; in experiment [2], 0.0675; in experiment [3], 0.0354; in experiment [4], -0.0211.

For the compound `CC(=O)Oc1ccccc1C(=O)O` [Acetylsalicylicacid] + CC(C1CCC(C(O1)OC2C(CC(C(C2O)OC3C(C(C(CO3)(C)O)NC)O)N)N)N)NC [Gentamicin], the Bliss interaction score in experiment [1] (main component drawn) is 0.286; in experiment [2] (main component drawn) it was 0.0535; in experiment [3] (main component drawn), 0.165; in experiment [4] (main component drawn) it was 0.0614.

Turning to `CC(=O)Oc1ccccc1C(=O)O` [Acetylsalicylicacid] + CCC(C)C1C(=O)NC(=C)C(=O)NC(C(=O)NC(CSCC(C(=O)N1)NC(=O)/C(=C/C)/NC(=O)C(C(C)CC)N)C(=O)NC2C(SCC(NC(=O)CNC(=O)C3CCCN3C2=O)C(=O)NC(CCCCN)C(=O)NC4C(SCC(NC(=O)CNC(=O)C(NC(=O)C(NC(=O)C(NC(=O)CNC4=O)C)CC(C)C)CCSC)C(=O)NC(CC(=O)N)C(=O)NC(CCSC)C(=O)NC(CCCCN)C(=O)NC5C(SCC6C(=O)NC(C(=O)NC(CSC(C(C(=O)N6)NC(=O)C(NC5=O)C)C)C(=O)NC(CO)C(=O)NC(C(C)CC)C(=O)NC(CC7=CN=CN7)C(=O)NC(C(C)C)C(=O)NC(=C)C(=O)NC(CCCCN)C(=O)O)CC8=CN=CN8)C)C)C)CC(C)C [Nisin], the Bliss interaction score in experiment [1] (main component drawn) was -0.0969; in experiment [2] (main component drawn), -0.0424; in experiment [3] (main component drawn), -0.113; in experiment [4] (main component drawn) it was -0.0598.

On to `CC(=O)Oc1ccccc1C(=O)O` [Acetylsalicylicacid] + CCCCCCCCCC(=O)N[C@@H]1[C@H]([C@@H]([C@H](O[C@H]1OC2=C3C=C4C=C2OC5=C(C=C(C=C5)[C@H]([C@H]6C(=O)N[C@@H](C7=C(C(=CC(=C7)O)OC8[C@H]([C@H]([C@@H]([C@H](O8)CO)O)O)O)C9=C(C=CC(=C9)[C@H](C(=O)N6)NC(=O)[C@@H]4NC(=O)[C@@H]1C2=CC(=CC(=C2)OC2=C(C=CC(=C2)[C@H](C(=O)N[C@H](CC2=CC(=C(O3)C=C2)Cl)C(=O)N1)N)O)O)O)C(=O)O)O[C@H]1[C@@H]([C@H]([C@@H]([C@H](O1)CO)O)O)NC(=O)C)Cl)CO)O)O [Teicoplanin], for which the Bliss interaction score in experiment [1] (main component drawn) was 0.206; in experiment [2] (main component drawn), -0.045; in experiment [3] (main component drawn), 0.0851; in experiment [4] (main component drawn), -0.0656.

Regarding `CC(=O)Oc1ccccc1C(=O)O` [Acetylsalicylicacid] + CCC[C@@H]1C[C@@H](C(=O)N[C@@H]([C@H]2O[C@H](SC)[C@H](O)[C@@H](O)[C@H]2O)[C@@H](C)O)N(C)C1 [Lincomycin], the Bliss interaction score in experiment [1] is -0.0832; in experiment [2], 0.0801; in experiment [3], 0.199; in experiment [4], 0.0556.

With `CC(=O)Oc1ccccc1C(=O)O` [Acetylsalicylicacid] + CCC[C@@H]1C[C@@H](C(=O)N[C@@H]([C@H]2O[C@H](SC)[C@H](O)[C@@H](O)[C@H]2O)[C@H](C)Cl)N(C)C1 [Clindamycin], the Bliss interaction score is 0.0404 in experiment [1], -0.105 in experiment [2], 0.0574 in experiment [3] and 0.0829 in experiment [4].

`CC(=O)Oc1ccccc1C(=O)O` [Acetylsalicylicacid] + CCN(CC)CCOC(=O)c1ccc(N)cc1 [Procaine]: the Bliss interaction score is 0.0531 in experiment [1], 0.0662 in experiment [2], 0.0998 in experiment [3] and -0.0687 in experiment [4].

For the compound `CC(=O)Oc1ccccc1C(=O)O` [Acetylsalicylicacid] + CCP(CC)CC.CC(=O)OC[C@@H]1[C@H]([C@@H]([C@H]([C@@H](O1)[S-])OC(=O)C)OC(=O)C)OC(=O)C.[Au+] [Auranofin], the Bliss interaction score was 0.0526 in experiment [1], 0.0631 in experiment [2], -0.0726 in experiment [3] and 0.0597 in experiment [4].

In the case of `CC(=O)Oc1ccccc1C(=O)O` [Acetylsalicylicacid] + CC[C@H]1OC(=O)[C@H](C)C(=O)[C@H](C)[C@@H](O[C@@H]2O[C@H](C)C[C@H](N(C)C)[C@H]2O)[C@](C)(OC)C[C@@H](C)C(=O)[C@H](C)[C@H]2N(CCCCn3cnc(-c4cccnc4)c3)C(=O)O[C@]12C [Telithromycin], the Bliss interaction score in experiment [1] is 0.205; in experiment [2] it was -0.043; in experiment [3] it was 0.0695; in experiment [4], 0.0539.

As to `CC(=O)Oc1ccccc1C(=O)O` [Acetylsalicylicacid] + CC[C@H]1OC(=O)[C@H](C)[C@@H](O[C@H]2C[C@@](C)(OC)[C@@H](O)[C@H](C)O2)[C@H](C)[C@@H](O[C@@H]2O[C@H](C)C[C@H](N(C)C)[C@H]2O)[C@](C)(O)C[C@@H](C)C(=O)[C@H](C)[C@@H](O)[C@]1(C)O [Erythromycin], the Bliss interaction score was found to be 0.184 in experiment [1], 0.0745 in experiment [2], 0.1 in experiment [3] and 0.144 in experiment [4].
